In test [1] the test system is Rattus norvegicus. Briefly: In vivo mean dose ratio (MDR) activity against the pressor response induced by big ET-1 in alderley park rats at 1 hr after (1 mg/kg) oral administration. Type of test: functional.
The target of a further test is T1, Endothelin-1 receptor (Homo sapiens, UniProt P25101).
T1 sequence (P25101 whole entry): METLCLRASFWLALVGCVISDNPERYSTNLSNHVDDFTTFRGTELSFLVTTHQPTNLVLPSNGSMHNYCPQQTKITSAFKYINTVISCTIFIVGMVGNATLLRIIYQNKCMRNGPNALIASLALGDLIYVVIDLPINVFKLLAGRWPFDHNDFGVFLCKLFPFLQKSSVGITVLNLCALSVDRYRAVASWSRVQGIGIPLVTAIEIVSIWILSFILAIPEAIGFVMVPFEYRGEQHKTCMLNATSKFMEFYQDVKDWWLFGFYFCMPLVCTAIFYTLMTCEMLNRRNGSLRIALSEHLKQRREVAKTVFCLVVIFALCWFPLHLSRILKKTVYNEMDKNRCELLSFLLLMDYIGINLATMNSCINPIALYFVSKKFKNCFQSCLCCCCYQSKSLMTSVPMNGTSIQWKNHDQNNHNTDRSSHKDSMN
Put plainly: In vitro binding was measured by the displacement of [125I]ET1 from membranes prepared from MEL cells transfected with cloned human ETA receptors. Type of test: cell membranes.

Test [2] relates to Rattus norvegicus. Briefly: In vivo mean dose ratio(MDR) activity against the pressor response induced by big ET-1 in alderley park rats at 4 hr after (2.5 mg/kg) oral administration. In kind it is functional.
In test [3] the test system is Rattus norvegicus. Put plainly: In vivo mean dose ratio(MDR) activity against the pressor response induced by big ET-1 in alderley park rats at 2 hr after (2.5 mg/kg) oral administration. In kind it is functional.
Test [4] deals with Rattus norvegicus. Briefly: In vivo mean dose ratio(MDR) activity against the pressor response induced by big ET-1 in alderley park rats at 30 min after (2.5 mg/kg) oral administration. Type of test: functional.

The values below come from ChEMBL document CHEMBL1130440, “N-Methyl-2-[4-(2-methylpropyl)phenyl]-3-(3-methoxy-5-methylpyrazin-2-ylsulfamoyl)benzamide; one of a class of novel benzenesulphonamides which are orally-active, ETA-selective endothelin antagonists” (Bioorg Med Chem Lett, 1997).

For the compound `COCCNC(=O)c1cccc(S(=O)(=O)Nc2ncc(C)nc2OC)c1-c1ccc(CC(C)C)cc1`, the MDR with Rattus norvegicus [1] was found to be 3.2. The compound further gave an IC50 at Endothelin-1 receptor of 0.501 nM.
Compound `COc1nc(Br)cnc1NS(=O)(=O)c1ccccc1-c1ccccc1` showed an IC50 at Endothelin-1 receptor of 31.6 nM.
On to `COc1nc(C)cnc1NS(=O)(=O)c1cccc(C(N)=O)c1-c1ccc(CC(C)C)cc1`, for which, in the test with Rattus norvegicus [1], the MDR came to 2.4. The compound also gave an IC50 on Endothelin-1 receptor of 1 nM.
`COc1nc(Br)cnc1NS(=O)(=O)c1cccc(C(=O)N(C)C)c1-c1ccc(CC(C)C)cc1`: the IC50 at Endothelin-1 receptor was 1 nM.
`COc1nc(Br)cnc1NS(=O)(=O)c1ccccc1-c1ccc(CC(C)C)cc1` had an IC50 on Endothelin-1 receptor of 39.8 nM.
Take `COc1nc(C)cnc1NS(=O)(=O)c1cccc(C(=O)N(C)C)c1-c1ccc(CC(C)C)cc1`: the MDR with Rattus norvegicus [1] is reported as 1.6. Besides, the IC50 at Endothelin-1 receptor was 2.51 nM.
For the compound `COc1nc(C)cnc1NS(=O)(=O)c1cccc(C(=O)NCCO)c1-c1ccc(CC(C)C)cc1`, in the test with Rattus norvegicus [1], the MDR turned out to be 4.2. In addition, the IC50 at Endothelin-1 receptor was 0.631 nM.
Consider `COCCNC(=O)c1cccc(S(=O)(=O)Nc2ncc(Br)nc2OC)c1-c1ccc(CC(C)C)cc1`, for which the MDR in the test with Rattus norvegicus [1] worked out at 2.1. In addition, the IC50 on Endothelin-1 receptor is 1.58 nM.
Consider `CNC(=O)c1cccc(S(=O)(=O)Nc2ncc(Br)nc2OC)c1-c1ccccc1`, for which the IC50 at Endothelin-1 receptor is 39.8 nM.
At Endothelin-1 receptor, `COc1nc(Br)cnc1NS(=O)(=O)c1cccc(C(N)=O)c1-c1ccc(CC(C)C)cc1` gave an IC50 of 0.794 nM.
Turning to `CNC(=O)c1cccc(S(=O)(=O)Nc2ncc(C)nc2OC)c1-c1ccc(CC(C)C)cc1`, the Oral activity with Rattus norvegicus [2] is listed as 4; in the test with Rattus norvegicus [3], 3.3; in the test on Rattus norvegicus [4] it was 6.2. Besides, the MDR in the test with Rattus norvegicus [1] was 3.2. This compound also had an IC50 on Endothelin-1 receptor of 0.501 nM.
The compound `CCCCCNC(=O)c1cccc(S(=O)(=O)Nc2ncc(Br)nc2OC)c1-c1ccccc1` had a 50% inhibitory concentration (IC50) on Endothelin-1 receptor of 3.98 nM.
The compound `COc1nc(Br)cnc1NS(=O)(=O)c1cccc(C(N)=O)c1-c1ccccc1` had an IC50 on Endothelin-1 receptor of 39.8 nM.
Turning to `CNC(=O)c1cccc(S(=O)(=O)Nc2ncc(Br)nc2OC)c1-c1ccc(CC(C)C)cc1`, in the test with Rattus norvegicus [1], the MDR is recorded as 2.7. The same compound gave an IC50 on Endothelin-1 receptor of 1.26 nM.
As for `CCCCCNC(=O)c1cccc(S(=O)(=O)Nc2ncc(Br)nc2OC)c1-c1ccc(CC(C)C)cc1`, the IC50 on Endothelin-1 receptor was 200 nM.
